Measurements reported in article PMC6025191, “Heteronemin, a Marine Sesterterpenoid-Type Metabolite, Induces Apoptosis in Prostate LNcap Cells via Oxidative and ER Stress Combined with the Inhibition of Topoisomerase II and Hsp90” (Marine Drugs, 2018).

Biological target: T1, topoisomerase IIα (Homo sapiens, UniProt P11388)
T1 construct: gene TOP2A
Test: cell-free DNA cleavage assay with pHOT1 plasmid ([…], induction of linear DNA)
Type: biochemical

T1 sequence (P11388 whole entry): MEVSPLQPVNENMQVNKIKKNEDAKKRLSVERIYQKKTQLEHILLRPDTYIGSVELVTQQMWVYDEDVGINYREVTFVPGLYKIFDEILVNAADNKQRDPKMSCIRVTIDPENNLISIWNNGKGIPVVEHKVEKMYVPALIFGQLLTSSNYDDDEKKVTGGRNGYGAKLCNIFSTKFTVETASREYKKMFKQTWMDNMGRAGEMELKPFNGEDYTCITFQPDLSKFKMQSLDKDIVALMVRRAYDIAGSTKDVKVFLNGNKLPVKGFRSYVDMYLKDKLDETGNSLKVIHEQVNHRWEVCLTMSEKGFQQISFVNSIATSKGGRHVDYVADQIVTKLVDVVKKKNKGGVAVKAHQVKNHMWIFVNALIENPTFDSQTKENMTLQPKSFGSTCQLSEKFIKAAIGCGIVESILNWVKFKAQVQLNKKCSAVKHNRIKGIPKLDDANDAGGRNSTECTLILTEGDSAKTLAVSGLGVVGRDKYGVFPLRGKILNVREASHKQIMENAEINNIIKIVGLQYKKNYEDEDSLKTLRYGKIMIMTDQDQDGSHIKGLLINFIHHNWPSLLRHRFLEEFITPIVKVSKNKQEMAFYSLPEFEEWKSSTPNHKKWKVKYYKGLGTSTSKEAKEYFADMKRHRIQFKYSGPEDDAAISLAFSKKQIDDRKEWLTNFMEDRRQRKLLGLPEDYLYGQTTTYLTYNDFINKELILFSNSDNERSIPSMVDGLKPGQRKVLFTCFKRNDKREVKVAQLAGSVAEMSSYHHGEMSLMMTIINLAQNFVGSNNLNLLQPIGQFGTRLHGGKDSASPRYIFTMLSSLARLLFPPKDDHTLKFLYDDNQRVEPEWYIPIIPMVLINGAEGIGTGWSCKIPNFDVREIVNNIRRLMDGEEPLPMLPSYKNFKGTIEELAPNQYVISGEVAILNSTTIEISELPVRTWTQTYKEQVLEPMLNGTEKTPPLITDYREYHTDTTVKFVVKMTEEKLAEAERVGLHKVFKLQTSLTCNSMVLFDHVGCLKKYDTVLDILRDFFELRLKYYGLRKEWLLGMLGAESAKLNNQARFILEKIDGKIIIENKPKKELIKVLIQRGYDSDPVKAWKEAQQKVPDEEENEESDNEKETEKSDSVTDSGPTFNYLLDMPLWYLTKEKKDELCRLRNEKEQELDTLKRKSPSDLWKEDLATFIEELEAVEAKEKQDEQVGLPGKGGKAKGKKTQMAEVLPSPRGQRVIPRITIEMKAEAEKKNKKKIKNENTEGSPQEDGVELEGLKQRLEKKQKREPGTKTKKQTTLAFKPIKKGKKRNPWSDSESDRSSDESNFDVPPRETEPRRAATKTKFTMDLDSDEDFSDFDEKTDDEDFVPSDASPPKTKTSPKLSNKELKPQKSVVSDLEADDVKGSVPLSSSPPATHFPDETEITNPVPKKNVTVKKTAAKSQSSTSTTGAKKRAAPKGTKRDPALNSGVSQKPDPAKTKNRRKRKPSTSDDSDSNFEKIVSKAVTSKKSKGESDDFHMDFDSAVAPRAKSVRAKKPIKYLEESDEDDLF

## COc1cc([C@@H]2c3cc4c(cc3[C@@H](O[C@@H]3O[C@@H]5CO[C@@H](C)O[C@H]5[C@H](O)[C@H]3O)[C@H]3COC(=O)[C@H]23)OCO4)cc(OC)c1O [etoposide]
  cell-free DNA cleavage assay with pHOT1 plasmid (500 μM, induction of linear DNA): A linear DNA strand was observed upon treating the supercoiled pHOT1 plasmid DNA with etoposide, a standard topo II poison
